*1 amine or outer side, *2 acyl side, *3 side chain or, on linkers, in order; H or OH if unused. Where a SMILES comes first, the peptide text is derived from it. Bridges are numbered along the chain shown (N, C = ends). [ ]: non-standard residue; d: D form. The star is where a group is joined. ξ: configuration not given here. Phe(3R-OH) = O=C([C@@H](N[*:1])[C@H](O[*:3])c1ccccc1)[*:2]; NMeTrp(4-OMe) = CN[CH](Cc1c[nH]c2cccc(OC)c12)C(=O)O; X1 = O=C(C(N[*:1])C(O)c1ccccc1)[*:2]; NMeT = CN[CH](C(=O)O)[CH](C)O; NMeI = CC[CH](C)[CH](NC)C(=O)O; ξNMe2Val = CC(C)C(C(=O)*)N(C)C; NMeL = CN[CH](CC(C)C)C(=O)O; NMeV = CN[CH](C(=O)O)C(C)C
What was measured:
Format in all cases: binding
ClpC1-FL Q17A = ClpC1-FL Q17A (Mycobacterium tuberculosis, UniProt P9WPC9, Q17A)
ClpC1-FL K85A = ClpC1-FL K85A (Mycobacterium tuberculosis, UniProt P9WPC9, K85A)
ClpC1-FL L92S/L96P = ClpC1-FL L92S/L96P (Mycobacterium tuberculosis, UniProt P9WPC9, L92S/L96P)
ClpC1-NTD MAFER = ClpC1-NTD MAFER (Mycobacterium tuberculosis, UniProt P9WPC9); details: relative to wild type
ClpC1-NTD MVFER = ClpC1-NTD MVFER (Mycobacterium tuberculosis, UniProt P9WPC9); details: relative to wild type
ClpC1-NTD FER = ClpC1-NTD FER (Mycobacterium tuberculosis, UniProt P9WPC9); details: relative to wild type
ClpC1-NTD AAFER = ClpC1-NTD AAFER (Mycobacterium tuberculosis, UniProt P9WPC9)
ClpC1-FL V14A = ClpC1-FL V14A (Mycobacterium tuberculosis, UniProt P9WPC9, V14A)

Row | SMILES | reduction of binding, Q17A (ClpC1-FL Q17A) | reduction of binding affinity, K85A (ClpC1-FL K85A) | binding to double mutant L92S/L96P (in words) (ClpC1-FL L92S/L96P) | decrease of binding, insertion of Ala before Phe2 (ClpC1-NTD MAFER) [fold] | reduction of binding, insertion of Val before Phe2 (ClpC1-NTD MVFER) | reduction of binding affinity, deletion of Met1 (ClpC1-NTD FER) | reduction of binding affinity, Met1Ala mutation and Ala insertion (ClpC1-NTD AAFER) [fold] | reduction of binding affinity, V14A (ClpC1-FL V14A) | reduction of binding affinity, L92S/L96P (ClpC1-FL L92S/L96P)
1 | CCC(C)C(C(=O)NC1C(=O)N(C)C(C(C)O)C(=O)NC(C(C)C)C(=O)N(C)C(CC(C)C)C(=O)NC(C(C)C)C(=O)N(C)C(C(C)C)C(=O)N(C)C(Cc2c[nH]c3cccc(OC)c23)C(=O)NC(C(C)C)C(=O)NC(C(O)c2ccccc2)C(=O)NC(C(C)C)C(=O)OC1C)N(C)C(=O)C(NC(=O)C(C(C)C)N(C)C)C(C)C (centres unmarked) [ECU, ecumicin] (ξNMe2Val-V[NMeI]T[NMeT]V[NMeL]V[NMeV][NMeTrp(4-OMe)]V[X1]V; ester 3-C; configuration not given here) | sevenfold | ninefold | abolished binding | 72 | 82 fold | 62 fold | 68 |  | 
2 | CN[C@H](C(=O)N[C@H](C(=O)N[C@@H]1C(=O)N(C)[C@@H]([C@@H](C)O)C(=O)N[C@@H](C(C)C)C(=O)N(C)[C@@H](CC(C)C)C(=O)N[C@@H](C(C)C)C(=O)N(C)[C@@H](C(C)C)C(=O)N(C)[C@@H](Cc2c[nH]c3cccc(OC)c23)C(=O)N[C@@H](C(C)C)C(=O)N[C@@H]([C@H](O)c2ccccc2)C(=O)N[C@@H](C(C)C)C(=O)O[C@@H]1C)C(C)C)C(C)C [OMS-A, ohmyungsamycin A] (H-[NMeV]VT[NMeT]V[NMeL]V[NMeV][NMeTrp(4-OMe)]V[Phe(3R-OH)]V; ester 3-C) |  |  | abolished binding |  |  |  |  |  | 
3 | C/C=C/C[C@@H]1NC(=O)[C@H](CC(C)C)N(C)C(=O)[C@H](CC(C)C)NC(=O)[C@H](Cc2ccc(O)c([N+](=O)[O-])c2)NC(=O)[C@H](C)N2C(=O)[C@H](CC(C)C2O)N(C)C(=O)[C@H](Cc2cn(C(C)(C)C3CO3)c3ccccc23)NC1=O (some centres unmarked) [RUF-I, rufomycin I] | 17 fold | fivefold |  |  | sixfold | fivefold |  | eightfold | threefold

Reference: publication PMC7193532 (Acta Crystallographica. Section D, Structural Biology, 2020)
